Series [1] relates to Poliovirus 1. The series can be described thus: Antiviral activity against PV1 infected in […] BSC cells at 2 ug/6 mm disk. It is filed as functional.
The nature of series [2]: Cytotoxicity against […] BSC cells at 2 ug /6 mm disk. In kind it is cell-based.
Series [3] is described as follows: Cytotoxicity against […] BSC cells at 20 ug /6 mm disk. It is filed as cell-based.
In series [4] the test system is Poliovirus 1. The series can be described thus: Antiviral activity against PV1 infected in […] BSC cells at 20 ug/6 mm disk. In kind it is functional.
Series [5] concerns Human alphaherpesvirus 1. As to the kind of experiment: Antiviral activity against HSV1 infected in […] BSC cells at 20 ug/6 mm disk. It is filed as functional.
The test system of series [6] is Poliovirus 1. As to the kind of experiment: Antiviral activity against PV1 infected in […] BSC cells at 5 ug/6 mm disk. It is filed as functional.
Series [7] can be described thus: Cytotoxicity against […] BSC cells at 5 ug /6 mm disk. It is filed as cell-based.
Series [8] has as its system Human alphaherpesvirus 1. The series can be described thus: Antiviral activity against HSV1 infected in […] BSC cells at 2 ug/6 mm disk. In kind it is functional.

With `COC1=C(C)C(=O)O/C1=C\C(C)CCC/C(C)=C/CC/C(C)=C/CCC1=CC(O)OC1=O` (mixture of isomers), the “inhibition zone (IZ)” value in series [1] amounted to 2 mm; in series [2] it was 2 mm; in series [3], 4 mm.

In the case of `COC1=C(C)C(=O)O/C1=C\C(C)CCC/C(C)=C/CC/C(C)=C/CCC1=CC(=O)OC1O` (mixture of isomers), the “inhibition zone (IZ)” value came to 2 mm in series [1]; 1 mm in series [2]; 4 mm in series [4]; 4 mm in series [5]; 2 mm in series [3].

`COC1=C(C)C(=O)O/C1=C\C(C)CCC/C(C)=C/CC/C(C)=C/CCC1(O)C(OC)OC(OC)C1O` (mixture of isomers): the “inhibition zone (IZ)” value in series [4] was 4 mm; in series [5], 4 mm; in series [3], 1 mm.

On to `C/C(=C\CCc1ccoc1)CC/C=C(\C)CCCC(C)CC(=O)O` (stereo unspecified), for which the “inhibition zone (IZ)” value in series [6] and in series [7] was 2 mm each time.

As for `CC1=C(O)/C(=C/C(C)CCC/C(C)=C/CC/C(C)=C/CCc2ccoc2)OC1=O` (stereo unspecified) [VARIABILIN], the “inhibition zone (IZ)” value in series [1] came to 4 mm; in series [8], 4 mm; in series [2], 1 mm.

The values are drawn from ChEMBL document CHEMBL1151132, “Autooxidation Studies on the Marine Sesterterpene Tetronic Acid, Variabilin” (J Nat Prod, 1989).
